Measurements reported in patent US20110098261A1, “TRITERPENOID-BASED COMPOUNDS USEFUL AS VIRUS INHIBITORS” (priority 2008, published 2011).
Like-named read-outs stand apart in the source and are kept apart here.

What was measured:
[1] = tested on: chicken embryo fibroblast (CEF) cells
[2] = tested on: avian influenza virus KBNP-0028 (KCTC 10866BP); type: cell-based, A/chicken/Korea/SNU0028/2000(H9N2)

C=C(C)[C@@H]1CC[C@]2(C=O)CC[C@]3(C)[C@H](CC[C@@H]4[C@@]5(C)CC[C@H](O)C(C)(C)[C@@H]5CC[C@]43C)[C@@H]12 [12B-AJ-26A, betulinic aldehyde]
Cytotoxicity assay (absorbance) ([1]; 6.25 μg/mL): 0.352 | Cytotoxicity assay (absorbance) ([1]; 12.5 μg/mL): 0.326 | Cytotoxicity assay (absorbance) ([1]; 25 μg/mL): 0.324 | Cytotoxicity assay (absorbance) ([1]; 50 μg/mL): 0.325 | Cytotoxicity assay (absorbance) ([1]; 100 μg/mL): 0.434 | Cytotoxicity assay (absorbance) ([1]; 200 μg/mL): 0.421 | Antiviral activity (in words) [2]: showed antiviral activity
